In patent US9675571B2, “Inhibitors of indoleamine 2,3-dioxygenase (IDO)” (BRISTOL-MYERS SQUIBB COMPANY, priority 2013, dated 2017):
pIC50: −log10 of the molar value.

Each molecule was assayed against Human IDO1 (Homo sapiens (Human), UniProt P14902) (assay: IDO Kynurenine Assay with Human IDO1/HEK293 Cells). Conditions: 20 hours incubation, kynurenine detected with Ehrlich reagent, absorbance at 490 nm, read-out: HEK Human IDO-1 IC50.
Type: cell-based
Method: Human IDO1/HEK293 cells were seeded at 10,000 cells per 50 uL per well with RPMI/phenol red free media contains 10% FBS in a 384-well black wall clear bottom tissue culture plate (Matrix Technologies LLC) 125 nL of certain concentration of compound was then added to each well using ECHO liquid handling systems. The cells were incubated for 20 hours in 37° C. incubator with 5% CO2.
The compound treatments were stopped by adding Trichloroacetic Acid (Sigma-Aldrich) to a final concentration at 0.2%. The cell plate was further incubated at 50° C. for 30 minute. The equal volume supernatant (20 uL) and 0.2% (w/v) Ehrlich reagent (4-dimethylaminobenzaldehyde, Sigma-Aldrich) in glacial acetic acid were mixed in a new clear bottom 384-well plate. This plate was then incubated at room temperature for 30 minute. The absorbance at 490 nm was measured on Envision plate reader.
Compound IC50 values were calculated using the counts of 500 nM of a reference standard treatment as one hundred percent inhibition, and counts of no compound but DMSO treatment as zero percent inhibition.

Sequence of Human IDO1 (P14902 whole entry): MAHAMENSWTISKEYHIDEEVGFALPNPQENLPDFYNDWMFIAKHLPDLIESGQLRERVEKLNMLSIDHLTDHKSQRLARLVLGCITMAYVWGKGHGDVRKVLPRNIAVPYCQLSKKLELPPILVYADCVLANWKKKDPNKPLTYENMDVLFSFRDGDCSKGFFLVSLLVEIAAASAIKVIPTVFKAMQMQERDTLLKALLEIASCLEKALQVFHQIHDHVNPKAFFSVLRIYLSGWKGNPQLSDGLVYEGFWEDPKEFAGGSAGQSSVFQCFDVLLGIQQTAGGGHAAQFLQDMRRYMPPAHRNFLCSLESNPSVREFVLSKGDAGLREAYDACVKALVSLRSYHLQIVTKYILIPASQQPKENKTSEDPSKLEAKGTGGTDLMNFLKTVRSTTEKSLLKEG

Compound | pIC50
CC(C)CN(CC(C)C)c1ccc([C@H]2C[C@H]2C(=O)O)cc1NC(=O)Nc1ccc(C(F)(F)F)cc1 [Example 5, (1R,2S)-2-(4-(diisobutylamino)-3-(3-(4-(trifluoromethyl)phenyl)ureido)phenyl)cyclopropanecarboxylic acid] | 6.03
CC(C)CN(CC(C)C)c1ccc([C@H]2C[C@H]2C(=O)O)cc1NC(=O)Nc1ccc(Cl)c(Cl)c1 [Example 6, (1R,2S)-2-(3-(3-(3,4-dichlorophenyl)ureido)-4-(diisobutylamino)phenyl) cyclopropanecarboxylic acid] | 6.83
CC(C)CN(CC(C)C)c1ccc([C@H]2C[C@H]2C(=O)O)cc1NC(=O)Nc1ccc(CC#N)cc1 [Example 15, (1R,2S)-2-(3-(3-(4-(cyanomethyl)phenyl)ureido)-4-(diisobutylamino)phenyl) cyclopropanecarboxylic acid] | 6.27
Cc1cccc(NC(=O)Nc2cc([C@@H]3C[C@@H]3C(=O)O)ccc2N(CC(C)C)CC(C)C)c1 [Example 19, (1S,2R)-2-(4-(diisobutylamino)-3-(3-(m-tolyl)ureido)phenyl) cyclopropanecarboxylic acid] | 6.35
CC(C)CN(CC(C)C)c1ccc([C@@H]2C[C@@H]2C(=O)O)cc1NC(=O)Nc1ccc(C2CC2)cc1 [Example 20, (1S,2R)-2-(3-(3-(4-cyclopropylphenyl)ureido)-4-(diisobutylamino)phenyl) cyclopropanecarboxylic acid] | 7.21
Cc1cc(NC(=O)Nc2cc([C@H]3C[C@H]3C(=O)O)ccc2N(CC(C)C)CC(C)C)on1 [Example 30, (1R,2S)-2-(4-(diisobutylamino)-3-(3-(3-methylisoxazol-5-yl)ureido)phenyl)cyclopropanecarboxylic acid] | 8.22
CC(C)CN(CC(C)C)c1ccc([C@H]2C[C@H]2C(=O)O)cc1NC(=O)Nc1cc(C2CC2)no1 [Example 34, (1R,2S)-2-(3-(3-(3-cyclopropylisoxazol-5-yl)ureido)-4-(diisobutylamino)phenyl)cyclopropanecarboxylic acid] | 8.70
CC(C)CN(CC(C)C)c1ccc([C@@H]2C[C@@H]2C(=O)O)cc1NC(=O)Nc1cc(C(F)(F)F)no1 [Example 37, (1S,2R)-2-(4-(diisobutylamino)-3-(3-(3-(trifluoromethyl)isoxazol-5-yl)ureido)phenyl)cyclopropanecarboxylic acid] | 8.15
Cc1ccc(CC(=O)Nc2cc([C@H]3C[C@H]3C(=O)O)ccc2N(CC(C)C)CC(C)C)cc1 [Example 60, (1R,2S)-2-(4-(diisobutylamino)-3-(2-(p-tolyl)acetamido)phenyl)cyclopropanecarboxylic acid] | 7.68
Cc1cc(NC(=O)Nc2cc([C@@H]3C[C@@H]3C(=O)O)ccc2N(CC(C)C)CC(C)C)no1 [Example 67, (1S,2R)-2-(4-(diisobutylamino)-3-(3-(5-methylisoxazol-3-yl)ureido)phenyl)cyclopropanecarboxylic acid] | 7.64
Cc1ccc(NC(=O)Nc2cc([C@H]3C[C@H]3C(=O)O)ccc2N(CCCC(F)(F)F)C2CCCCC2)cc1 [Example 73, (1R,2S)-2-(4-(cyclohexyl(4,4,4-trifluorobutyl)amino)-3-(3-(p-tolyl)ureido)phenyl)cyclopropanecarboxylic acid] | 6.28
O=C(Nc1cncnc1)Nc1cc([C@H]2C[C@H]2C(=O)O)ccc1N(CCCC(F)(F)F)C1CCCCC1 [Example 75] | 6.10
Cc1ccc(NC(=O)Nc2cc([C@@H]3C[C@@H]3C(=O)O)ccc2N(CCCC(F)(F)F)C2CCCCC2)cc1 [Example 76, (1S,2R)-2-(4-(cyclohexyl(4,4,4-trifluorobutyl)amino)-3-(3-(p-tolyl)ureido)phenyl)cyclopropanecarboxylic acid] | 6.47
O=C(Nc1cncnc1)Nc1cc([C@H]2C[C@H]2C(=O)O)ccc1N(CCC(F)(F)F)C1CCCCC1 [Example 87, (1R,2S)-2-(4-(cyclohexyl(3,3,3-trifluoropropyl)amino)-3-(3-(pyrimidin-5-yl)ureido)phenyl)cyclopropanecarboxylic acid] | 6.00
CC(C)CN(CC(C)C)c1ccc([C@H]2C[C@H]2C(=O)O)cc1NC(=O)Cc1ccc(F)cc1 [Example 117, (1R,2S)-2-(4-(diisobutylamino)-3-(2-(4-fluorophenyl)acetamido)phenyl)cyclopropanecarboxylic acid] | 7.01
Cc1ccc(CC(=O)Nc2cc([C@H]3C[C@H]3C(=O)O)ccc2N(CC(C)C)CC(C)C)cn1 [Example 118, (1R,2S)-2-(4-(diisobutylamino)-3-(2-(6-methylpyridin-3-yl)acetamido)phenyl)cyclopropanecarboxylic acid] | 6.90
Cc1cc(NC(=O)Nc2cc([C@H]3C[C@H]3C(=O)O)ccc2N(CC(C)C)C2CCCCC2)on1 [Example 129, (1R,2S)-2-(4-(cyclohexyl(isobutyl)amino)-3-(3-(3-methylisoxazol-5-yl)ureido)phenyl)cyclopropanecarboxylic acid] | 9.30

Continued by rising pIC50, values first:

pIC50 | Compound
6.28 | CCOC(=O)Nc1ccc(NC(=O)Nc2cc([C@@H]3C[C@@H]3C(=O)O)ccc2N(CC(C)C)CC(C)C)cc1 [Example 71, (1S,2R)-2-(4-(diisobutylamino)-3-(3-(4-((ethoxycarbonyl)amino)phenyl)ureido)phenyl)cyclopropanecarboxylic acid]
6.58 | Cc1cc(CC(=O)Nc2cc([C@@H]3C[C@@H]3C(=O)O)ccc2N(CC(C)C)CC(C)C)on1 [Example 63, (1S,2R)-2-(4-(diisobutylamino)-3-(2-(3-methylisoxazol-5-yl)acetamido)phenyl) cyclopropanecarboxylic acid]
6.70 | CC(C)CN(CC(C)C)c1ccc([C@@H]2C[C@@H]2C(=O)O)cc1NC(=O)Nc1ccc(OCC(F)(F)F)cc1 [Example 72, (1S,2R)-2-(4-(diisobutylamino)-3-(3-(4-(2,2,2-trifluoroethoxy)phenyl)ureido)phenyl)cyclopropanecarboxylic acid]
7.01 | CC(C)CN(CC(C)C)c1ccc([C@H]2C[C@H]2C(=O)O)cc1NC(=O)Nc1ccccc1Cl [Example 9, (1R,2S)-2-(3-(3-(2-chlorophenyl)ureido)-4-(diisobutylamino)phenyl) cyclopropanecarboxylic acid]
7.06 | COCCN(Cc1ccc(Cl)cc1)c1ccc([C@H]2C[C@H]2C(=O)O)cc1NC(=O)Nc1ccc(C)cc1 (single isomer, unassigned) [Example 43]
7.07 | Cc1ccc(NC(=O)Nc2cc([C@H]3C[C@H]3C(=O)O)ccc2N(CC(C)C)CC(C)C)c(Cl)c1 [Example 14, (1R,2S)-2-(3-(3-(2-chloro-4-methylphenyl)ureido)-4-(diisobutylamino)phenyl) cyclopropanecarboxylic acid]
7.19 | Cc1ncc(NC(=O)Nc2cc([C@@H]3C[C@@H]3C(=O)O)ccc2N(CC(C)C)CC(C)C)cn1 [Example 77, (1S,2R)-2-(4-(diisobutylamino)-3-(3-(2-methylpyrimidin-5-yl)ureido)phenyl)cyclopropanecarboxylic acid]
8.10 | COC(=O)[C@@H]1C[C@@H]1c1ccc(N(CC(C)C)CC(C)C)c([N+](=O)[O-])c1 [Example 1J, (1R,2S)-methyl 2-(4-(diisobutylamino)-3-nitrophenyl) cyclopropanecarboxylate]
8.15 | CC(C)CN(CC(C)C)c1ccc([C@H]2C[C@H]2C(=O)O)cc1NC(=O)Nc1cc(C(F)(F)F)no1 [Example 36, (1R,2S)-2-(4-(diisobutylamino)-3-(3-(3-(trifluoromethyl)isoxazol-5-yl)ureido)phenyl)cyclopropanecarboxylic acid]
8.40 | Cc1cc(NC(=O)Nc2cc([C@@H]3C[C@@H]3C(=O)O)ccc2N(CC(C)C)CC(C)C)on1 [Example 31, (1S,2R)-2-(4-(diisobutylamino)-3-(3-(3-methylisoxazol-5-yl)ureido)phenyl)cyclopropanecarboxylic acid]
8.70 | COC(=O)C1CC1c1ccc(N(CC(C)C)CC(C)C)c([N+](=O)[O-])c1 (stereo not drawn) [ent-1J]
